According to ChEMBL document CHEMBL1139301, “Multifidone: a novel cytotoxic lathyrane-type diterpene having an unusual six-membered A ring from Jatropha multifida” (Bioorg Med Chem Lett, 2009):

Legend:
Type in all cases: functional, cell-based
A-375 = experiment: Cytotoxicity against human A375 cells by MTT assay
A549 = experiment: Cytotoxicity against human A549 cells by MTT assay
HL-60 = experiment: Cytotoxicity against human HL60 cells by MTT assay
THP-1 = experiment: Cytotoxicity against human THP1 cells by MTT assay

Structure (SMILES) | IC50 (A-375) | IC50 (A549) | IC50 (HL-60) | IC50 (THP-1)
COc1cc([C@@H]2c3cc4c(cc3[C@@H](O[C@@H]3O[C@@H]5CO[C@@H](C)O[C@H]5[C@H](O)[C@H]3O)[C@H]3COC(=O)[C@H]23)OCO4)cc(OC)c1O [ETOPOSIDE] | 3.92 µM | 9.51 µM | 1.83 µM | 2.16 µM
CC1=CC(=O)[C@]23O[C@](C)(C=C2C1=O)CC[C@H]1[C@@H](C[C@H]3C)C1(C)C [MULTIFIDONE] | 159 µM | 127 µM | 121 µM | 45.6 µM
